Data as given in US4882348A, “2-(aminoalkylthio)imidazoles as dopamine-β-hydroxylase inhibitors” (SmithKline Beckman Corporation, priority 1987, dated 1989).

What was measured:
DBH = biological target: T1, DBH (Bos taurus, UniProt P15101); assay: in vitro DBH inhibition, conversion of tyramine to octopamine; type: biochemical; details: octopamine assayed as p-hydroxybenzaldehyde after sodium periodate oxidation, absorbance at 330 nm; read-out: IC50 (molar concentration of compound at which DBH activity was halved)
T1 sequence (P15101 1-610): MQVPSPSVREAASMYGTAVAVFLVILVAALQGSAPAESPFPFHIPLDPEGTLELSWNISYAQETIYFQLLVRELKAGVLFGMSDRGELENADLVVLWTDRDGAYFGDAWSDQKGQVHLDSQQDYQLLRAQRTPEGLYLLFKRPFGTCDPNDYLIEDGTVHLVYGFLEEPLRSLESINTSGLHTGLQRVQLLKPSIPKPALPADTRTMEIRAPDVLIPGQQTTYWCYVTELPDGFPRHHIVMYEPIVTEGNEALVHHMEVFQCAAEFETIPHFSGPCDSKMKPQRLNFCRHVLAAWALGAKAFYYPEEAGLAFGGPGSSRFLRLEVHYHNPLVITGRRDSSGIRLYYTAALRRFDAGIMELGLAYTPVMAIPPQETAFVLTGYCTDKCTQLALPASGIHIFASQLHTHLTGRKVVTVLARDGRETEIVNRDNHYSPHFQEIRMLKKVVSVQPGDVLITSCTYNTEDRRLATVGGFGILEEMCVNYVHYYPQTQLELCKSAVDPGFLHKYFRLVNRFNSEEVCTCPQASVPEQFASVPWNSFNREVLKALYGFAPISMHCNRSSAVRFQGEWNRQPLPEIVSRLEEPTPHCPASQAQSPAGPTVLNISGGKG
Protocol: Listed in Table I are Formula (I) compounds that were tested for in vitro DBH inhibition by a standard procedure for assaying conversion of tyramine to octopamine in the presence of DBH. J. J. Pisano, et al., Biochim. Biophys. 43, 566-568 (1960). Octopamine was assayed following sodium periodate oxidation to p-hydroxybenzaldehyde by measuring spectrophotometric absorbance at 330 nm. Inhibition is given in molar concentration of compound at which DBH activity was halved (IC50).

[1] = test system: Spontaneously hypertensive rats; assay: mean arterial blood pressure in spontaneously hypertensive rats; type: in vivo; details: 50 mg/kg intraperitoneally
Protocol: Spontaneously hypertensive rats were treated with 2-(2-aminoethylthio) 1-(3,5 difluorobenzyl)imidazole at a dose of 50 mg/kg intraperitoneally, and mean arterial blood pressure was monitored for four hours using an indwelling cannula in the femoral artery. […] The maximal blood pressure reduction was approximately 10 mmHg.

IC50 (DBH): 1800 µM
SMILES: Cl.Cl.NCCSc1nccn1Cc1cc(F)cc(F)c1 [2-(2-Aminoethylthio)-1-(3,5-difluorobenzyl)imidazole Dihydrochloride]
maximal blood pressure reduction ([1]; mean arterial blood pressure, femoral artery cannula): approximately 10 mmHg
blood pressure reduction compared to vehicle treated controls ([1]; monitored for four hours): significant blood pressure reductions
time of lowest blood pressures after administration ([1]; monitored for four hours): 3 to 4 h
time to significant blood pressure reductions ([1]; vs vehicle treated controls): ≤ 30 min
